Assay results published in PubChem BioAssay (NCI).
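Protocol summary: plate cells (96-well), add compound at 5 concentrations, incubate 48 h, interpolate endpoints linearly. At the GI50, growth is halved. TGI: concentration producing complete growth inhibition.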

Key:
Experiment in all cases: NCI-60 cell line screen, 48 h
HCT-116 colon = system: HCT-116 colon
HOP-92 NSCLC = system: HOP-92 NSCLC
KM12 colon = system: KM12 colon
MDA-MB-435 = system: MDA-MB-435
MOLT-4 leukemia = system: MOLT-4 leukemia
NCI-H23 lung = system: NCI-H23 lung
NCI-H460 lung = system: NCI-H460 lung
SK-MEL-28 melanoma = system: SK-MEL-28 melanoma
OVCAR-5 ovarian = system: OVCAR-5 ovarian
SNB-19 CNS = system: SNB-19 CNS

Row | SMILES | GI50 (HCT-116 colon) | TGI (HCT-116 colon) | GI50 (HOP-92 NSCLC) | GI50 (KM12 colon) | GI50 (MDA-MB-435) | TGI (MDA-MB-435) | GI50 (MOLT-4 leukemia) | GI50 (NCI-H23 lung) | TGI (NCI-H23 lung) | GI50 (NCI-H460 lung) | TGI (NCI-H460 lung) | GI50 (SK-MEL-28 melanoma) | TGI (SK-MEL-28 melanoma) | TGI (HOP-92 NSCLC) | TGI (KM12 colon) | TGI (MOLT-4 leukemia) | TGI (OVCAR-5 ovarian) | TGI (SNB-19 CNS) | GI50 (OVCAR-5 ovarian) | GI50 (SNB-19 CNS)
1 | COc1cc2c(cc1OCCCCCn1c(-c3ccco3)nc3ccccc31)N=C[C@@H]1CCCN1C2=O | < 10 nM | 16.1 µM | < 12.2 nM | < 10 nM | < 10 nM | < 0.01 µM | < 0.01 µM | < 0.01 µM | < 0.01 µM | < 10 nM | 14.3 µM | < 0.01 µM | < 0.0149 µM | – | – | – | – | – | – | –
2 | O=C(CC/C(CC(=O)c1ccc(Cl)cc1)=N/O)Nc1ccc(Cl)c(Cl)c1 | – | > 100 µM | – | – | – | – | – | – | > 100 µM | – | > 100 µM | – | > 100 µM | > 100 µM | > 100 µM | > 100 µM | > 100 µM | > 100 µM | – | –
3 | COC(=O)c1c(C)cc2c(c1O)C1(O)C(=O)c3cc4c(c(O)c3C(=O)C1(OC)C(O)C2)C(=O)C=C(NC1OC(C)C(OC)C(O)C1OC)C4=O (stereo unspecified) | – | 0.177 µM | – | – | – | – | – | – | 0.0368 µM | – | 0.435 µM | – | – | 0.443 µM | 0.562 µM | 0.13 µM | 0.401 µM | 1.22 µM | – | –
4 | Oc1ccc2c3c1OC1C(=NN=C4CCC5(O)C6Cc7ccc(O)c8c7C5(CCN6CC5CC5)C4O8)CCC4(O)C(C2)N(CC2CC2)CCC314 (stereo unspecified) | – | 30.1 µM | – | – | – | – | – | – | 99 µM | – | 46.1 µM | – | 49.4 µM | 53.4 µM | 40.2 µM | > 74 µM | > 100 µM | > 100 µM | – | –
5 | COCOCc1cc(OCc2ccccc2)c(OC)cc1Br | – | > 100 µM | – | – | – | – | – | – | > 100 µM | – | > 100 µM | – | > 100 µM | > 100 µM | > 100 µM | – | > 100 µM | > 100 µM | – | –
6 | O=C1CSC(=S)N1Cc1cccnc1 | 3360 nM | 11 µM | – | 2220 nM | 3530 nM | 17.1 µM | 11.6 µM | 15.1 µM | 48 µM | 18400 nM | 48.7 µM | 11.4 µM | 27.3 µM | – | 5.21 µM | > 100 µM | 26.8 µM | > 100 µM | 13.2 µM | 47.8 µM
7 | N#CCCN(CCC#N)c1ccc(/C=N\c2nc(-c3ccccc3)cs2)cc1 | – | > 100 µM | – | – | – | – | – | – | > 100 µM | – | > 100 µM | – | > 100 µM | > 100 µM | – | > 100 µM | > 100 µM | > 100 µM | – | –
8 | CCOC(=O)N[C@H]1CCc2cc(O)c(OC)c(OC)c2-c2ccc(SC)c(=O)cc21 | – | 10.7 µM | – | – | – | – | – | – | 9.95 µM | – | 3.58 µM | – | > 100 µM | 0.0786 µM | 0.413 µM | > 100 µM | > 100 µM | > 100 µM | – | –
9 | CCCCCCCCCCCCSC(=NC)NC | – | – | 1390 nM | – | 1740 nM | 3.3 µM | 2.01 µM | 2.2 µM | 4.71 µM | 1840 nM | 3.52 µM | 1.72 µM | 3.22 µM | 5.49 µM | – | 5.05 µM | 4.16 µM | 17.6 µM | 1.83 µM | 3.06 µM
10 | O=C1C2C(C(=O)N1c1ccccc1)C1(c3ccccc3)OC2(c2ccccc2)c2ccccc21 (stereo unspecified) | – | – | – | – | – | – | – | – | > 100 µM | – | > 100 µM | – | > 100 µM | > 100 µM | > 100 µM | > 100 µM | > 100 µM | > 100 µM | – | –
11 | CCCC(=O)Nc1cc([N+](=O)[O-])c([N+](=O)[O-])cc1OC | – | 32.3 µM | – | – | – | 33.3 µM | – | – | 34.4 µM | – | 35.4 µM | – | 32.2 µM | – | 27.2 µM | – | > 100 µM | 30.7 µM | – | –
12 | CCOCC(=O)N[C@H]1CCc2cc(OC(=O)COCC)c(OC)c(OC)c2-c2ccc(SC)c(=O)cc21 | – | – | – | – | – | 0.00412 µM | 0.034 µM | 0.0337 µM | – | 39.5 nM | – | > 100 µM | > 100 µM | 0.08 µM | – | > 100 µM | > 100 µM | > 100 µM | 0.0549 µM | 0.0283 µM
13 | O=C1Cc2ccccc2N1c1c(Cl)cccc1Cl | – | > 100 µM | – | – | – | – | – | – | > 100 µM | – | > 100 µM | – | > 100 µM | > 100 µM | > 100 µM | 98.1 µM | > 100 µM | > 100 µM | – | –
14 | COc1ccc(N(C)c2nc(Cl)nc3ccn(C)c23)cc1 | < 10 nM | > 100 µM | 1790 nM | < 10 nM | – | – | < 0.01 µM | < 0.01 µM | > 100 µM | < 10 nM | > 100 µM | 5 µM | > 100 µM | 67.5 µM | > 100 µM | > 100 µM | > 100 µM | > 100 µM | 7.54 µM | < 0.01 µM
15 | CCC[CH2][Sn]1([CH2]CCC)[O]C(=O)c2cccc(OC)c2[O]1 | 494 nM | 1.69 µM | < 45.6 nM | 1100 nM | – | – | 0.217 µM | 0.265 µM | 1.25 µM | 1380 nM | 2.9 µM | 0.234 µM | 0.747 µM | 0.486 µM | 2.32 µM | 1.36 µM | 2.9 µM | 2.13 µM | 1.55 µM | 0.799 µM
16 | O[C@@H]1CCCN1Cc1cc2cc3c(cc2c2cc(OCc4ccccc4)ccc12)OCO3 | 2100 nM | 5.16 µM | 1530 nM | 3200 nM | 2000 nM | 4.29 µM | 3.38 µM | – | – | 2600 nM | 7.38 µM | 1.78 µM | 3.85 µM | 5.36 µM | 8.95 µM | 14.1 µM | 21.2 µM | 21.4 µM | 5.64 µM | 6.23 µM
17 | CC(C)(C)c1cn2cccc(C(=O)N3CCN(CC(=O)Nc4ccc(Cl)cc4C(=O)c4ccccc4Cl)CC3)c2n1 | 10300 nM | 25.7 µM | – | 5680 nM | 6390 nM | 21.6 µM | 5.52 µM | 18.8 µM | > 100 µM | 5790 nM | 23 µM | 11 µM | 28.8 µM | – | 22.4 µM | > 100 µM | 44.9 µM | 54.8 µM | 16.1 µM | 15.3 µM
18 | COc1ccc(/C(=N\O)c2cc(OC)c(OC)c(OC)c2)c(OC)c1N | 2820 nM | > 100 µM | > 100000 nM | 2110 nM | 653 nM | 4.65 µM | 3.95 µM | 6.45 µM | > 100 µM | 3590 nM | > 100 µM | – | – | > 100 µM | > 100 µM | > 100 µM | – | > 100 µM | – | 5.61 µM
19 | C=CCC12CC(=O)C=C1CCC1(C2)OCCO1 (stereo unspecified) | – | > 100 µM | – | – | – | – | – | – | – | – | > 100 µM | – | > 100 µM | – | > 100 µM | > 100 µM | – | > 100 µM | – | –
20 | O=C(Nc1ccc([N+](=O)[O-])cc1C(=O)O)c1ccc([N+](=O)[O-])cc1 | – | 53.9 µM | – | – | – | – | – | – | – | – | > 100 µM | – | > 100 µM | 36.6 µM | 99.5 µM | 31.4 µM | > 100 µM | > 100 µM | – | –
21 | O=C1Nc2ccccc2/C1=C/c1cn(C(=O)c2c(Cl)cccc2Cl)c2ccccc12 | 1670 nM | 3.38 µM | 1540 nM | 1760 nM | 2240 nM | 7.1 µM | 2.82 µM | 4.08 µM | 17.3 µM | 2000 nM | 3.97 µM | – | – | 6.33 µM | 3.95 µM | > 100 µM | 50.1 µM | > 100 µM | 8.85 µM | 7.32 µM
22 | C#C[C@@]1(O)CCCC2=CC(=O)C[C@]21C | – | – | – | – | – | – | – | – | > 100 µM | – | > 100 µM | – | > 100 µM | > 100 µM | > 100 µM | > 100 µM | > 100 µM | > 100 µM | – | –
23 | Cn1cnc([N+](=O)[O-])c1Sc1nc2cccnc2s1 | – | 29.5 µM | – | – | – | – | – | – | – | – | > 100 µM | – | 30.8 µM | 33.9 µM | > 100 µM | 23.6 µM | > 100 µM | > 100 µM | – | –
24 | CN(C)CC(C)(C)C(/C=C/c1ccccc1)=N\Nc1ccccc1 | – | 15.7 µM | – | – | – | – | – | – | 23.5 µM | – | 17.8 µM | – | 10.8 µM | – | 26.6 µM | 17.3 µM | 2 µM | > 100 µM | – | –
25 | CC1C=CC(C)C2(O)C(=O)NC(O)C12 (stereo unspecified) | – | > 100 µM | – | – | – | – | – | – | – | – | > 100 µM | – | > 100 µM | – | > 100 µM | > 100 µM | – | > 100 µM | – | –
26 | CN(C)c1ccc(/C=C/c2ccnc3ccccc23)cc1N | – | – | – | – | – | 8.06 µM | – | – | 21.8 µM | – | 22.3 µM | – | 26.3 µM | 5.87 µM | 65.4 µM | 25.5 µM | 31.2 µM | 28.5 µM | – | –
27 | Cn1c(=O)c2[nH]c(C3CC(=O)CC(c4nc5c([nH]4)c(=O)n(C)c(=O)n5C)N3)nc2n(C)c1=O (stereo unspecified) | – | > 100 µM | – | – | – | > 100 µM | – | – | > 100 µM | – | > 100 µM | – | > 100 µM | – | > 100 µM | > 100 µM | > 100 µM | > 100 µM | – | –
28 | COC(=O)c1oc2c(O)c(OC)c(Br)cc2c1C | – | – | – | 21200 nM | 29000 nM | 65.4 µM | 22.4 µM | – | – | 64000 nM | > 100 µM | – | – | – | 47.6 µM | 43 µM | – | 46.1 µM | – | 22.9 µM
29 | Cc1nc(N)sc1N=Nc1cc(Cl)c([N+](=O)[O-])cc1Cl | – | > 100 µM | – | – | – | 42.1 µM | – | – | – | – | 86.7 µM | – | 33.9 µM | – | 37.7 µM | 22.4 µM | 84.6 µM | > 100 µM | – | –
